Legend:
SHP-1 = molecular target: T1, SHP-1 (Mus musculus, UniProt P29351); test: In vitro PTPase assay, GST/SHP-1; assay type: biochemical; settings: for inhibitory activity against SHP-1: 3-4 μg/ml or 10-100 μg/ml
T1 construct: made in house
Description: In vitro PTPase activities were measured using the commercial protein tyrosine phosphatase assay kit (Upstate Biotechnology, Inc. (“UBI”)) following established procedure known to one of skill in the art. […] Briefly, 0.01 µg of GST/PTPase fusion proteins was incubated in 50 µl of Tris buffer (10 mM Tris, pH 7.4) containing different concentrations of inhibitors or chemicals (0-1,000 µg/ml) at 22° […] 100 µl of Malachite Green solution was added and incubated for 5 minutes, and the absorbance at 660 nm was measured after 5 minutes.
To assess the reversibility of inhibition of SHP-1 by PTPase inhibitors, GST/SHP-1 fusion protein bound on glutathione beads were pre-incubated in cold Tris buffer or Tris buffer containing the PTPase inhibitors at 4° C. for 30 minutes. The beads were then either subjected to in vitro PTPase assays or washed 3 times in Tris buffer then subjected to in vitro PTPase assays.
Briefly, individual PTPases (0.1 µg/reaction) in 50 µL of PTPase buffer (50 mM Tris, pH 7.4) were incubated at 22° C. for 10 minutes or as indicated in the absence or presence of inhibitory compounds. Substrates (0.2 mM phosphotyrosine peptide) were then added and allowed to react at 22° C. for 18 hrs. PTPase activity of individual reactions was measured by adding 100 µL of malachite green solution (UBI) and then quantifying the amounts of free phosphate cleaved by the PTPase from the peptide substrate by spectrometry (OD660 nm). […] Relative PTPase activities were calculated based on the formula: (PTPase activity in the presence of an inhibitory compound/PTPase activity in the absence of the compound)× 100%. To assess the reversibility of PTPase inhibition, GST fusion proteins of the PTPases bound on glutathione beads (Pharmacia) were pre-incubated with cold Tris buffer (50 mM Tris, pH 7.0) or Tris buffer containing the inhibitor at 4° C. for 30 minutes. The beads were then washed three times in cold Tris buffer or not washed prior to subjecting to in vitro PTPase assays.

WM9 cells = test: WM9 melanoma cell growth, MTT assay; assay type: cell-based, human; settings: for effect on IFN-induced growth inhibition of WM9 cells: pentamidine 0.625-1.25 μg/ml, ketoconazole 40 μg/ml, sodium stibogluconate 12.5-50 μg/ml
Description: For cell proliferation assays, cells were grown in 10% FCS culture medium containing various amounts of IFNs and/or sodium stibogluconate in 96 well plates and cultured at 37° C. for 3 or 6 days as indicated. The numbers of viable cells in proliferation assays were determined by MTT assays as described in Phatak et al., J. Immunol. 167, 3391 (2001).
Dose response curves were generated for each drug alone, and also the combinations. Median effect plots were generated for IFNs alone, sodium stibogluconate alone, and the combination. The combination index (CI) was determined and plotted vs. fraction affected (FA). Data were analyzed in both modes, mutually exclusive and mutually nonexclusive. The interaction between two mutually nonexclusive drugs is described by the Equation CI=D1/Dx1+D2/Dx2+D1D2/Dx1Dx2, where Dx1 and Dx2 are the doses of drug 1 and drug 2 that are required to inhibit growth x %. […] When CI<1, drugs are synergistic, when CI=1, drugs are additive, and when CI>1, drugs are antagonistic.
Renca (Murphy, G. P., and W. J. Hrushesky. 1973. A murine renal cell carcinoma. J Natl Cancer Inst 50:1013), Jurkat (Gillis, S., and J. Watson. 1980. Biochemical and biological characterization of lymphocyte regulatory molecules. V. Identification of an interleukin 2-producing human leukemia T cell line. J Exp Med 152:1709) and WM9 (Forsberg, K., 1. Valyi-Nagy, C. H. Heldin, M. Herlyn, and B. Westermark. 1993. Platelet-derived growth factor (PDGF) in oncogenesis: development of a vascular connective tissue stroma in xenotransplanted human melanoma producing PDGF-BB. Proc Natl Acad Sci USA 90:393) cell lines were obtained from a colleague at the Cleveland Clinic Foundation (CCF) and cultured in RPMI 1640 medium supplemented with 10% fetal calf serum (FCS). […] SSG has been described previously (Yi, T., M. K. Pathak, D. J. Lindner, M. E. Ketterer, C. Farver, and E. C. Borden. 2002. Anticancer activity of sodium stibogluconate in synergy with IFNs. J Immunol 169:5978).

T1 sequence (P29351 whole entry): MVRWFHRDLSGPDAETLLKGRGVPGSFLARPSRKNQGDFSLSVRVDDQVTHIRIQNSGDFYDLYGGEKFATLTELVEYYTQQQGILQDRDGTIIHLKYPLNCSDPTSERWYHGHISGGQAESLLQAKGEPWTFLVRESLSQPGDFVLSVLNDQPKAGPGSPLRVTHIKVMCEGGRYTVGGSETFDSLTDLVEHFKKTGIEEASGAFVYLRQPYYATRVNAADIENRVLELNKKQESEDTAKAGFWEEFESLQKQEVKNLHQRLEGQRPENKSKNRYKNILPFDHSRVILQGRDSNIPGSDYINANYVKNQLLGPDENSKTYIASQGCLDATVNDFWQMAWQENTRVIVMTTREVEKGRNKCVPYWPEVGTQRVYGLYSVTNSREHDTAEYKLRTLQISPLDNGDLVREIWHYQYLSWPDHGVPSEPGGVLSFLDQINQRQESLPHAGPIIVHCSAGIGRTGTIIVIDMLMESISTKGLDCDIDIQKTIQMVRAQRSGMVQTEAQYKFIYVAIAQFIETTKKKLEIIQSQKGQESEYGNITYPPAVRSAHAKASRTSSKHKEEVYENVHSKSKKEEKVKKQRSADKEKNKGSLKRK

| SMILES | activity against recombinant SHP-1 (SHP-1; HPLC fractions, parental mixture at Sb 10 μg/ml) | dephosphorylation of pNPP by these PTPases (SHP-1; pNPP substrate, SHP-1, SHP-2 and PTP1B) | inhibition of GST/SHP-1 after washing (reversibility) (SHP-1; pre-incubated with inhibitor, beads washed) | growth of WM9 melanoma cells (WM9 cells; SSG 6.25-200 μg/ml, 6 days) | effect on IFN-induced growth inhibition of WM9 cells (WM9 cells) | WM9 cells in day 6 culture (WM9 cells; single agent, 50 μg/ml and 100 μg/ml) | inhibitory activity against SHP-1 (SHP-1) | growth inhibition of WM9 cells (WM9 cells; pentamidine 2.5-5 μg/ml, single agent, 6 days) | activity against WM9 cells (WM9 cells; 0.625-20 μg/ml, single agent or with IFN-alpha) | inhibition at 40 µg/mL (WM9 cells; Homo sapiens, WM9, 40 μg/ml, single agent) [%] |
| --- | --- | --- | --- | --- | --- | --- | --- | --- | --- | --- |
| O.O.O.O.O.O.O.O.O.O=C([O-])[C@@H]1[O][Sb]2([O-])([O][Sb]34([OH])[O][C@H]([C@H](O)CO)[C@H]([O]3)[C@H](C(=O)[O-])[O]4)[O][C@H]([C@H](O)CO)[C@@H]1[O]2.[Na+].[Na+].[Na+] [sodium stibogluconate] | inactivated SHP-1 | similarly inhibited | not affected by washing | inhibited by SSG in a dose-dependent manner | greatly enhanced | killed all cells |  |  |  |  |
| N=C(N)c1ccc(OCCCCCOc2ccc(C(=N)N)cc2)cc1 [pentamidine] |  |  |  |  | augmented IFN-alpha-induced growth inhibition |  | no obvious inhibitory activity | 86-97% |  |  |
| CC(=O)N1CCN(c2ccc(OCC3COC(Cn4ccnc4)(c4ccc(Cl)cc4Cl)O3)cc2)CC1 (stereo not shown) [ketoconazole] |  |  |  |  | minor augmenting effect |  | no obvious inhibitory activity |  | no apparent activity | 67 |
